Test results: US12157746B2, “Tetrahydro-1H-pyrazino[2,1-a]isoindolylquinoline compounds for the treatment of autoimmune disease” (F. HOFFMANN-LA ROCHE AG, priority 2018, dated 2024)

These compounds were tested against T1, human TLR7 (Homo sapiens, UniProt Q9NYK1) (assay: HEK293-Blue-hTLR-7 cells assay). Conditions: HEK293-Blue-hTLR7 cells, R848 stimulation, 20 hrs, SEAP reporter; read-out: HEK/hTLR7 IC50.
T1 sequence (Q9NYK1 27-1049): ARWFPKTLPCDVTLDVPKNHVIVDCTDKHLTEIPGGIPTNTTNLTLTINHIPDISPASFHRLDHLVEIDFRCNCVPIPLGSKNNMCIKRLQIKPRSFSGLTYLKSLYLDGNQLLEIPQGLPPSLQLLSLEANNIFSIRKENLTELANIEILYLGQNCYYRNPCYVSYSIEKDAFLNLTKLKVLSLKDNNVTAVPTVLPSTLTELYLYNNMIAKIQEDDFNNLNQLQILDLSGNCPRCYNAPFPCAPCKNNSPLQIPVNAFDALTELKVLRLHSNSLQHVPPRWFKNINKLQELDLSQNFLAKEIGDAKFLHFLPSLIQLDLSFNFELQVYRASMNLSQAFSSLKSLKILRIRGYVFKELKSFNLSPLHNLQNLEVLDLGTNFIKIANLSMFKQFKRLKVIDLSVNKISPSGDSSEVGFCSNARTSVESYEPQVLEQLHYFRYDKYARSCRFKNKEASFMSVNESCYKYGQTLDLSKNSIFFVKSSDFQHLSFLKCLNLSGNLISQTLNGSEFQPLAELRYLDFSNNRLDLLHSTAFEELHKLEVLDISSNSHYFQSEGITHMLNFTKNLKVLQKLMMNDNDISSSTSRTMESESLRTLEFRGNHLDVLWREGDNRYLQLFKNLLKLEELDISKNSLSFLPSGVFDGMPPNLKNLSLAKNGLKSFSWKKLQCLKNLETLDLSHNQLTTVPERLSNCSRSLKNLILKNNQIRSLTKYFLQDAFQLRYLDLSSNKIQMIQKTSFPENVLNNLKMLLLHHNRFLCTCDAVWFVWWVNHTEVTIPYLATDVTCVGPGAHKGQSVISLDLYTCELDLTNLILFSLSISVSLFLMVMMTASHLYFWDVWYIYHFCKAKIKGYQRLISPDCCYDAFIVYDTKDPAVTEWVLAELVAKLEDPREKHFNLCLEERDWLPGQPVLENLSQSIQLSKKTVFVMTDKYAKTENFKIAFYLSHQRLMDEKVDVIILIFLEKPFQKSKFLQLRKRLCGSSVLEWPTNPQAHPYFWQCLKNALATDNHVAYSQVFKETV
Assay type: cell-based
Source text: HEK293-Blue-hTLR-7 Cells Assay:
A stable HEK293-Blue-hTLR-7 cell line was purchased from InvivoGen (Cat. #: hkb-htlr7, San Diego, California, USA). These cells were originally designed for studying the stimulation of human TLR7 by monitoring the activation of NF-κB. A SEAP (secreted embryonic alkaline phosphatase) reporter gene was placed under the control of the IFN-β minimal promoter fused to five NF-κB and AP-1-binding sites. The SEAP was induced by activating NF-κB and AP-1 via stimulating HEK-Blue hTLR7 cells with TLR7 ligands. Therefore the reporter expression was declined by TLR7 antagonist under the stimulation of a ligand, such as R848 (Resiquimod), for incubation of 20 hrs. The cell culture supernatant SEAP reporter activity was determined using QUANTI-Blue™ kit (Cat. #: rep-qb1, Invivogen, San Diego, Ca. USA) at a wavelength of 640 nm, a detection medium that turns purple or blue in the presence of alkaline phosphatase.
HEK293-Blue-hTLR7 cells were incubated at a density of 250,000˜450,000 cells/mL in a volume of 170 μL in a 96-well plate in Dulbecco's Modified Eagle's medium (DMEM) containing 4.5 g/L glucose, 50 U/mL penicillin, […], […], 2 mM L-glutamine, 10% (v/v) heat-inactivated fetal bovine serum with addition of 20 μL test compound 1n a serial dilution in the presence of final DMSO at 1% and 10 μL of 20 uM R848 in above DMEM, perform incubation under 37° C. in a CO2 incubator for 20 hrs. Then 20 μL of the supernatant from each well was incubated with 180 μL Quanti-blue substrate solution at 37° C. for 2 hrs and the absorbance was read at 620-655 nm using a spectrophotometer. The signaling pathway that TLR7 activation leads to downstream NF-κB activation has been widely accepted, and therefore similar reporter assay was modified for evaluating TLR7 antagonist.

SMILES	IC50
CO[C@@H]1CN(c2ccc3c(c2)CN2C3CN(c3ccc(C#N)c4ncccc34)C[C@H]2C)C[C@@H]1N (relative stereo) [Example 17, 5-[(4R,10bS)-8-[cis-3-amino-4-methoxy-pyrrolidin-1-yl]-4-methyl-3,4,6,10b-tetrahydro-1H-pyrazino[2,1-a]isoindol-2-yl]quinoline-8-carbonitrile]	< 3.2 nM
C[C@@H]1CN(c2ccc(C#N)c3ncccc23)C[C@@H]2c3ccc(N4CCC(C)(N)CC4)cc3CN12 [Example 51, 5-[(4R,10bS)-8-(4-amino-4-methyl-1-piperidyl)-4-methyl-3,4,6,10b-tetrahydro-1H-pyrazino[2,1-a]isoindol-2-yl]quinoline-8-carbonitrile]	1.4 nM
C[C@@H]1CN(c2ccc(C#N)n3nccc23)C[C@@H]2c3ccc(N4C[C@@H](N)[C@H](O)C4)cc3CN12 [Example 110, 4-[(4R,10bS)-8-[(3R,4R)-3-amino-4-hydroxy-pyrrolidin-1-yl]-4-methyl-3,4,6,10b-tetrahydro-1H-pyrazino[2,1-a]isoindol-2-yl]pyrazolo[1,5-a]pyridine-7-carbonitrile]	19 nM
C[C@@H]1CN(c2ccc(C#N)n3ncc(F)c23)C[C@@H]2c3ccc(N4C[C@H](N)[C@@](C)(O)C4)cc3CN12 [Example 112, 4-[(4R,10bS)-8-[(3S,4S)-4-amino-3-hydroxy-3-methyl-pyrrolidin-1-yl]-4-methyl-3,4,6,10b-tetrahydro-1H-pyrazino[2,1-a]isoindol-2-yl]-3-fluoro-pyrazolo[1,5-a]pyridine-7-carbonitrile]	11.4 nM
C[C@@H]1CN(c2ccc(C#N)c3ncccc23)C[C@@H]2c3ccc(N4CCNC[C@H]4CO)cc3CN12 [Example 11, 5-[(4R,10S)-8-[(2S)-2-(hydroxymethyl)piperazin-1-yl]-4-methyl-3,4,6,10b-tetrahydro-1H-pyrazino[2,1-a]isoindol-2-yl]quinoline-8-carbonitrile]	3.4 nM
C[C@@H]1CN(c2ccc(C#N)c3ncccc23)C[C@@H]2c3ccc(N4CC(N)C4)cc3CN12 [Example 22, 5-[(4R,10bS)-8-(3-aminoazetidin-1-yl)-4-methyl-3,4,6,10b-tetrahydro-1H-pyrazino[2,1-a]isoindol-2-yl]quinoline-8-carbonitrile]	< 3.2 nM
C[C@@H]1CN(c2ccc(C#N)c3ncccc23)C[C@@H]2c3ccc(N4CCNC[C@](C)(O)C4)cc3CN12 [Example 55A, 5-[(4R,10bS)-8-[(6S)-6-hydroxy-6-methyl-1,4-diazepan-1-yl]-4-methyl-3,4,6,10b-tetrahydro-1H-pyrazino[2,1-a]isoindol-2-yl]quinoline-8-carbonitrile]	7.7 nM
C[C@@H]1CN(c2ccc(C#N)c3ncccc23)C[C@@H]2c3ccc(OCCN(C)C)cc3CN12 [Example 25, 5-[(4R,10bS)-8-[2-(dimethylamino)ethoxy]-4-methyl-3,4,6,10b-tetrahydro-1H-pyrazino[2,1-a]isoindol-2-yl]quinoline-8-carbonitrile]	< 3.2 nM
C[C@@H]1CN(c2ccc(C#N)c3ncccc23)CC2c3ccc(N4C[C@H](N)[C@@H](O)C4)cc3CN21 (relative stereo) [Example 21, 5-[(4R,10bS)-8-[trans-3-amino-4-hydroxy-pyrrolidin-1-yl]-4-methyl-3,4,6,10b-tetrahydro-1H-pyrazino[2,1-a]isoindol-2-yl]quinoline-8-carbonitrile]	5.8 nM
C[C@@H]1CN(c2ccc(C#N)c3ncccc23)C[C@@H]2c3ccc(N4CCNCC(O)C4)cc3CN12 (stereo partly drawn) [Example 15, 5-[(4R,10bS)-8-(6-hydroxy-1,4-diazepan-1-yl)-4-methyl-3,4,6,10b-tetrahydro-1H-pyrazino[2,1-a]isoindol-2-yl]quinoline-8-carbonitrile]	5.8 nM
C[C@@H]1CN(c2ccc(C#N)n3nccc23)C[C@@H]2c3ccc(N4CCOC[C@H](N)C4)cc3CN12 [Example 101, 4-[(4R,10bS)-8-[(6R)-6-amino-1,4-oxazepan-4-yl]-4-methyl-3,4,6,10b-tetrahydro-1H-pyrazino[2,1-a]isoindol-2-yl]pyrazolo[1,5-a]pyridine-7-carbonitrile]	26.4 nM
C[C@@H]1CN(c2ccc(C#N)c3ncccc23)C[C@@H]2c3ccc(N4CCOC[C@H](N)C4)cc3CN12 [Example 54A, 5-[(4R,10bS)-8-[(6R)-6-amino-1,4-oxazepan-4-yl]-4-methyl-3,4,6,10b-tetrahydro-1H-pyrazino[2,1-a]isoindol-2-yl]quinoline-8-carbonitrile]	4.5 nM
C[C@@H]1CN(c2ccc(C#N)c3nccnc23)C[C@@H]2c3ccc(N4CCNCC4)cc3CN12 [Example 7, 8-[(4R,10bS)-4-methyl-8-piperazin-1-yl-3,4,6,10b-tetrahydro-1H-pyrazino[2,1-a]isoindol-2-yl]quinoxaline-5-carbonitrile]	< 3.2 nM
C[C@@H]1CN(c2ccc(C#N)c3ncccc23)C[C@@H]2c3ccc(N4C[C@H](N)[C@@H](O)C4)cc3CN12 [Example 40A, 5-[(4R,10bS)-8-[(3S,4S)-3-amino-4-hydroxy-pyrrolidin-1-yl]-4-methyl-3,4,6,10b-tetrahydro-1H-pyrazino[2,1-a]isoindol-2-yl]quinoline-8-carbonitrile]	3.7 nM
COC12CNCC1CN(c1ccc3c(c1)CN1[C@H](C)CN(c4ccc(C#N)c5ncccc45)C[C@H]31)C2 (stereo partly drawn) [Example 41, 5-[(4R,10bS)-8-(3a-methoxy-1,2,3,4,6,6a-hexahydropyrrolo[3,4-c]pyrrol-5-yl)-4-methyl-3,4,6,10b-tetrahydro-1H-pyrazino[2,1-a]isoindol-2-yl]quinoline-8-carbonitrile]	< 3.2 nM
C[C@@H]1CN(c2ccc(C#N)n3nccc23)C[C@@H]2c3ccc(N4C[C@H](N)[C@@](C)(O)C4)cc3CN12 [Example 109, 4-[(4R,10bS)-8-[(3S,4S)-4-amino-3-hydroxy-3-methyl-pyrrolidin-1-yl]-4-methyl-3,4,6,10b-tetrahydro-1H-pyrazino[2,1-a]isoindol-2-yl]pyrazolo[1,5-a]pyridine-7-carbonitrile]	28.1 nM
C[C@@H]1CN(c2ccc(C#N)n3nccc23)C[C@@H]2c3ccc(N4C[C@H](N)[C@@H](O)C4)cc3CN12 [Example 111, 4-[(4R,10bS)-8-[(3S,4S)-3-amino-4-hydroxy-pyrrolidin-1-yl]-4-methyl-3,4,6,10b-tetrahydro-1H-pyrazino[2,1-a]isoindol-2-yl]pyrazolo[1,5-a]pyridine-7-carbonitrile]	14 nM
C[C@@H]1CN(c2ccc3c(c2)CN2[C@H](C)CN(c4ccc(C#N)n5nccc45)C[C@H]32)CCN1 [Example 97, 4-[(4R,10bS)-4-methyl-8-[(3R)-3-methylpiperazin-1-yl]-3,4,6,10b-tetrahydro-1H-pyrazino[2,1-a]isoindol-2-yl]pyrazolo[1,5-a]pyridine-7-carbonitrile]	5 nM
C[C@@H]1CN(c2ccc(C#N)c3ncccc23)C[C@@H]2c3ccc(N4CCNC[C@@](C)(O)C4)cc3CN12 [Example 55B, 5-[(4R,10bS)-8-[(6R)-6-hydroxy-6-methyl-1,4-diazepan-1-yl]-4-methyl-3,4,6,10b-tetrahydro-1H-pyrazino[2,1-a]isoindol-2-yl]quinoline-8-carbonitrile]	16.1 nM
